Results as given in US11753407B2, “Compounds for treating spinal muscular atrophy” (PTC Therapeutics, Inc., priority 2012, dated 2023).

Assays:
[1] = system: SMN2 minigene mRNA (SMN2-A minigene) in HEK293H cells; experiment: SMN2 minigene mRNA splicing RT-qPCR assay in cultured cells; format: cell-based, human; conditions: Homo sapiens, HEK293-H; concentration increasing full length SMN2 mRNA 1.5-fold relative to vehicle-treated cells; HEK293H cells with SMN2-A minigene, 24 hours, 7-point concentration data; read-out: EC1.5x for production of full length SMN2 mRNA
Procedure, shortened: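 Read-out: minigene-specific full-length (exon 7-included) SMN2 mRNA by one-step multiplex RT-qPCR, normalized to GAPDH and divided by vehicle-treated level. Stable SMN2-A minigene HEK293H cells, 24 h compound exposure, 7 concentrations in duplicate. EC1.5× = concentration raising FL mRNA 1.5-fold.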

[2] = system: Smn protein in SMA patient fibroblast cells (GM03813); experiment: Smn protein assay in cultured cells (SMN HTRF); format: cell-based, human; conditions: SMA patient fibroblast cells, 48 hours; for EC1.5x for Smn protein expression: 7-point concentration curve, SMN HTRF, concentration producing 1.5 times Smn protein vs DMSO vehicle control; for maximum fold (Fold) increase of Smn protein: 7-point concentration data, fold relative to vehicle control
Procedure, shortened: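 Read-out: HTRF 665/620 nm ratio, blank-subtracted as ΔF, then expressed as fold over DMSO vehicle. Fibroblasts from SMA patients were exposed to compounds for 48 h (7 points, 3.16-fold steps, triplicates). Values are EC1.5× and maximum fold Smn increase.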

CCc1nc(C)cn2nc(-c3cc(=O)n4cc(N5CCN(CCCF)[C@H](C)C5)ccc4n3)cc12 [Compound 667, 2-(4-ethyl-6-methylpyrazolo[1,5-a]pyrazin-2-yl)-7-[(3R)-4-(3-fluoropropyl)-3-methylpiperazin-1-yl]-4H-pyrido[1,2-a]pyrimidin-4-one]
melting point: 244 to 246 °C | EC (1.5-fold increase) [1]: < 0.1 µM | EC1.5x for Smn protein expression [2]: **** (an EC1.5x≤0.3 μM is indicated by four stars (****)) | maximum fold (Fold) increase of Smn protein [2]: ***** (a fold increase >1.65 is indicated by five stars (*****))

CCc1nc(C)cn2nc(-c3cc(=O)n4cc(C5CCN(CCF)CC5)ccc4n3)cc12 [Compound 668, 2-(4-ethyl-6-methylpyrazolo[1,5-a]pyrazin-2-yl)-7-[1-(2-fluoroethyl)piperidin-4-yl]-4H-pyrido[1,2-a]pyrimidin-4-one]
melting point: 206 to 208 °C | EC (1.5-fold increase) [1]: < 0.1 µM | EC1.5x for Smn protein expression [2]: **** (an EC1.5x≤0.3 μM is indicated by four stars (****)) | maximum fold (Fold) increase of Smn protein [2]: ***** (a fold increase >1.65 is indicated by five stars (*****))

CCc1nc(C)cn2nc(-c3cc(=O)n4cc(C5CCN(CCCF)CC5)ccc4n3)cc12 [Compound 669, 2-(4-ethyl-6-methylpyrazolo[1,5-a]pyrazin-2-yl)-7-[1-(3-fluoropropyl)piperidin-4-yl]-4H-pyrido[1,2-a]pyrimidin-4-one]
melting point: 216 to 218 °C | EC (1.5-fold increase) [1]: < 0.1 µM | EC1.5x for Smn protein expression [2]: **** (an EC1.5x≤0.3 μM is indicated by four stars (****)) | maximum fold (Fold) increase of Smn protein [2]: ***** (a fold increase >1.65 is indicated by five stars (*****))

Cc1cn2nc(-c3cc(=O)n4cc(C5CCNCC5)cc(C)c4n3)cc2c(C)n1 [Compound 671, 2-(4,6-dimethylpyrazolo[1,5-a]pyrazin-2-yl)-9-methyl-7-(piperidin-4-yl)-4H-pyrido[1,2-a]pyrimidin-4-one]
melting point: 247 to 255 °C | EC (1.5-fold increase) [1]: < 0.1 µM | EC1.5x for Smn protein expression [2]: **** (an EC1.5x≤0.3 μM is indicated by four stars (****)) | maximum fold (Fold) increase of Smn protein [2]: ***** (a fold increase >1.65 is indicated by five stars (*****))

Cc1cn2nc(-c3cc(=O)n4cc(N5CCN(CCO)[C@H](C)C5)cc(C)c4n3)cc2c(C)n1 [Compound 673, 2-(4,6-dimethylpyrazolo[1,5-a]pyrazin-2-yl)-7-[(3R)-4-(2-hydroxyethyl)-3-methylpiperazin-1-yl]-9-methyl-4H-pyrido[1,2-a]pyrimidin-4-one]
melting point: 273 to 281 °C | EC (1.5-fold increase) [1]: < 0.1 µM | EC1.5x for Smn protein expression [2]: **** (an EC1.5x≤0.3 μM is indicated by four stars (****)) | maximum fold (Fold) increase of Smn protein [2]: **** (a fold increase between >1.5 and ≤1.65 is indicated by four stars (****))

Cc1cn2cc(-c3cc(=O)n4cc(N5CCN(C)CC5)ccc4n3)cc(CO)c2n1 [Compound 677, 2-[8-(hydroxymethyl)-2-methylimidazo[1,2-a]pyridin-6-yl]-7-(4-methylpiperazin-1-yl)-4H-pyrido[1,2-a]pyrimidin-4-one]
melting point: 262 to 266 °C | EC (1.5-fold increase) [1]: < 0.1 µM | EC1.5x for Smn protein expression [2]: *** (an EC1.5× between >0.3 μM and ≤1 μM is indicated by three stars (***)) | maximum fold (Fold) increase of Smn protein [2]: ***** (a fold increase >1.65 is indicated by five stars (*****))

CCN1CCN(c2ccc3nc(-c4cc(CO)c5nc(C)cn5c4)cc(=O)n3c2)CC1 [Compound 678, 7-(4-ethylpiperazin-1-yl)-2-[8-(hydroxymethyl)-2-methylimidazo[1,2-a]pyridin-6-yl]-4H-pyrido[1,2-a]pyrimidin-4-one]
melting point: 258 to 262 °C | EC (1.5-fold increase) [1]: < 0.1 µM | EC1.5x for Smn protein expression [2]: **** (an EC1.5x≤0.3 μM is indicated by four stars (****)) | maximum fold (Fold) increase of Smn protein [2]: ***** (a fold increase >1.65 is indicated by five stars (*****))

CCc1nc(C)cn2nc(-c3cc(=O)n4cc(C5CCN(C(C)C)CC5)ccc4n3)cc12 [Compound 679, 2-(4-ethyl-6-methylpyrazolo[1,5-a]pyrazin-2-yl)-7-[1-(propan-2-yl)piperidin-4-yl]-4H-pyrido[1,2-a]pyrimidin-4-one]
melting point: 228 to 230 °C | EC (1.5-fold increase) [1]: < 0.1 µM | EC1.5x for Smn protein expression [2]: **** (an EC1.5x≤0.3 μM is indicated by four stars (****)) | maximum fold (Fold) increase of Smn protein [2]: ***** (a fold increase >1.65 is indicated by five stars (*****))

CCc1nc(C)cn2nc(-c3cc(=O)n4cc(C5CCN(C6CC6)CC5)ccc4n3)cc12 [Compound 680, 7-(1-cyclopropylpiperidin-4-yl)-2-(4-ethyl-6-methylpyrazolo[1,5-a]pyrazin-2-yl)-4H-pyrido[1,2-a]pyrimidin-4-one]
melting point: 196 to 199 °C | EC (1.5-fold increase) [1]: < 0.1 µM | EC1.5x for Smn protein expression [2]: **** (an EC1.5x≤0.3 μM is indicated by four stars (****)) | maximum fold (Fold) increase of Smn protein [2]: ***** (a fold increase >1.65 is indicated by five stars (*****))

CCc1nc(C)cn2nc(-c3cc(=O)n4cc(C5CCN(C6CCC6)CC5)ccc4n3)cc12 [Compound 681, 7-(1-cyclobutylpiperidin-4-yl)-2-(4-ethyl-6-methylpyrazolo[1,5-a]pyrazin-2-yl)-4H-pyrido[1,2-a]pyrimidin-4-one]
melting point: 227 to 229 °C | EC (1.5-fold increase) [1]: < 0.1 µM | EC1.5x for Smn protein expression [2]: **** (an EC1.5x≤0.3 μM is indicated by four stars (****)) | maximum fold (Fold) increase of Smn protein [2]: ***** (a fold increase >1.65 is indicated by five stars (*****))

CCc1nc(C)cn2nc(-c3cc(=O)n4cc(C5CCN(C6COC6)CC5)ccc4n3)cc12 [Compound 682, 2-(4-ethyl-6-methylpyrazolo[1,5-a]pyrazin-2-yl)-7-[1-(oxetan-3-yl)piperidin-4-yl]-4H-pyrido[1,2-a]pyrimidin-4-one]
melting point: 190 to 192 °C | EC (1.5-fold increase) [1]: 0.3 to 1 µM | EC1.5x for Smn protein expression [2]: ** (an EC1.5× between >1 μM and ≤3 μM is indicated by two stars (**)) | maximum fold (Fold) increase of Smn protein [2]: ***** (a fold increase >1.65 is indicated by five stars (*****))

Cc1cn2nc(-c3cc(=O)n4cc(N5CCNCC5)ccc4n3)cc2c(C2CC2)n1 [Compound 683, 2-(4-cyclopropyl-6-methylpyrazolo[1,5-a]pyrazin-2-yl)-7-(piperazin-1-yl)-4H-pyrido[1,2-a]pyrimidin-4-one]
melting point: 226 to 229 °C | EC (1.5-fold increase) [1]: < 0.1 µM | EC1.5x for Smn protein expression [2]: *** (an EC1.5× between >0.3 μM and ≤1 μM is indicated by three stars (***)) | maximum fold (Fold) increase of Smn protein [2]: ***** (a fold increase >1.65 is indicated by five stars (*****))

Cc1cn2nc(-c3cc(=O)n4cc(N5CCN(C)CC5)ccc4n3)cc2c(C2CC2)n1 [Compound 684, 2-(4-cyclopropyl-6-methylpyrazolo[1,5-a]pyrazin-2-yl)-7-(4-methylpiperazin-1-yl)-4H-pyrido[1,2-a]pyrimidin-4-one]
melting point: 238 to 240 °C | EC (1.5-fold increase) [1]: 0.1 to 0.3 µM | EC1.5x for Smn protein expression [2]: *** (an EC1.5× between >0.3 μM and ≤1 μM is indicated by three stars (***)) | maximum fold (Fold) increase of Smn protein [2]: ***** (a fold increase >1.65 is indicated by five stars (*****))
